Among the data in patent publication US8633183B2 (priority 2010, dated 2014) are IC50 values, retold here.

In this experiment the target is PI3Kalpha (Homo sapiens (Human), UniProt P42336). The following applies: read-out: IC50 PI3K.
Chain of PI3Kalpha (P42336 whole entry, looked up): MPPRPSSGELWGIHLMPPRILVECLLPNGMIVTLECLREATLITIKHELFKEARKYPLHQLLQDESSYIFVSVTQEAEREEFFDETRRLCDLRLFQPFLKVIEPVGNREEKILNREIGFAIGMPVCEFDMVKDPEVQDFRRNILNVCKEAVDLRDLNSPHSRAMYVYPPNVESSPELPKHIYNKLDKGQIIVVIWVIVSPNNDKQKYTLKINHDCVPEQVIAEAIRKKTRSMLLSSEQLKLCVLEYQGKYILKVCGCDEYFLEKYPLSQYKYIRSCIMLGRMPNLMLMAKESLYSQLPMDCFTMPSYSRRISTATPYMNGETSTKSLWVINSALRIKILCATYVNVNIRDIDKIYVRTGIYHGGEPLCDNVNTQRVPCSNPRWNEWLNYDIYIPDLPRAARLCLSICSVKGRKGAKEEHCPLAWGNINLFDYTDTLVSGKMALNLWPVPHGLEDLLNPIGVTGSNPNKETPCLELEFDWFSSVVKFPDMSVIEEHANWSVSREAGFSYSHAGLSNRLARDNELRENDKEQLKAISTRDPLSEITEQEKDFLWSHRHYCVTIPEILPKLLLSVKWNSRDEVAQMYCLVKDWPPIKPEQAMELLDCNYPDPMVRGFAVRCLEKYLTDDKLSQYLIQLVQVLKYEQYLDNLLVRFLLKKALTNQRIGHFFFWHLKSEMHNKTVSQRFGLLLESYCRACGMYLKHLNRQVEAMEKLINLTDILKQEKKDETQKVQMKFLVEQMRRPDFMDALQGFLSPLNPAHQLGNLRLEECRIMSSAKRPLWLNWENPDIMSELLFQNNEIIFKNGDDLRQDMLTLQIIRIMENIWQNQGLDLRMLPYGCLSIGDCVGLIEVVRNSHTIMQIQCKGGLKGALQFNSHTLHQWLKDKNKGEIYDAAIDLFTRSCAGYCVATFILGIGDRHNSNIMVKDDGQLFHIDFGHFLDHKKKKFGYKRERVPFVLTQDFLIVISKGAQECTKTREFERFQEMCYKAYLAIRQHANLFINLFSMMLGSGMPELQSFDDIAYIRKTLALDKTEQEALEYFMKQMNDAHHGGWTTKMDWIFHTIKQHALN
Description: Plot the concentration of each compound versus the emission ratio. […] Determination of IC50 values can be obtained by curve fitting (sigmoidal dose response, variable slope) using Prism software from GraphPad).
Method Type: Filter-Binding-Assay
Compounds are serially diluted in assay buffer+6% DMSO and 10 μl of each dilution is added per well of a 96-well plate (compounds are tested in duplicates) and mixed with 30 μl of the lipid vesicles containing PDGFR-Peptide (0.5 μM final) and PI3K alpha (25 ng/well final). The mixture is then incubated for 20 minutes at room temperature. Subsequently, 20 μl of assay buffer containing 3 μM cold ATP and 0.5 μCi/20 μl 33P-ATP are added. The plates are then incubated at room temperature for 120 minutes (shaking with 300 rpm). The reaction mix is transferred onto filter plates using “filtermate harvester” from Packard: filter plates are rinsed with PBS, then the reaction mix is filtered onto the filter plate, washed 5 times with PBS and are allowed to dry for 30-60 minutes at 50° C.
As positive control serve wells containing vehicle controls (1% DMSO in assay buffer), showing non-inhibited kinase activity (high values). Wells containing assay buffer instead of enzyme can serve as control for background activity (low values).
Calculate IC50 values using the Smiley program (based on GrapPad Prism)
Regarding `CCc1ncnc(-c2cc(F)c(C(=O)N(C)C)c(F)c2)c1C#Cc1ccc(N)nc1` [Example E-10], the IC50 was 49.1 nM. For `CCc1ncnc(-c2ccc(C(=O)N3CCN(CC)CC3)c(OC)c2)c1C#Cc1ccc(N)nc1` [Example D-53], the IC50 worked out at 213 nM. Consider `CCc1ncnc(-c2ccc(C(=O)NCC3CCCN(C)C3)c(F)c2)c1C#Cc1ccc(N)nc1` [Example D-74], for which the IC50 stood at 630 nM. The figure for `CCc1ncnc(-c2cc(F)c(C(=O)NCCN3CCOCC3)c(F)c2)c1C#Cc1ccc(N)nc1` [Example E-13] is 154 nM; for `CCc1ncnc(-c2ccc(C(=O)N3CCC(CCO)CC3)c(F)c2)c1C#Cc1ccc(N)nc1` [Example D-104] it is 125 nM. The figure for `CCc1ncnc(-c2ccc(C(=O)N3CCC(N4CCC(C)CC4)C3)c(F)c2)c1C#Cc1ccc(N)nc1` [Example D-108] is 313 nM; for `CCOC(=O)N1CCN(C(=O)c2ccc(-c3ncnc(CC)c3C#Cc3ccc(N)nc3)cc2C)CC1` [Example E-107] it is 62.9 nM.

With `CCc1ncnc(-c2ccc(C(=O)N3CCN(CC(C)(C)O)CC3)c(F)c2)c1C#Cc1ccc(N)nc1` [Example E-349], the IC50 stood at 175 nM.

`CCc1ncnc(-c2ccc(C(=O)N3CCN(CCO)CC3)c(Cl)c2)c1C#Cc1ccc(N)nc1` [Example D-36]: the IC50 is 84 nM. The figure for `CCc1ncnc(-c2ccc(C(=O)N3CCN(C)C[C@@H]3C)c(F)c2)c1C#Cc1ccc(N)nc1` [Example E-348] is 144 nM; for `CCc1ncnc(-c2ccc(C(=O)N(C)CCO)c(Cl)c2)c1C#Cc1ccc(N)nc1` [Example D-34] it is 36 nM. In the case of `CCc1ncnc(-c2cnc3ccccc3c2)c1C#Cc1ccc(N)nc1` [Example C-29], the IC50 was 24 nM. `CCc1ncnc(-c2ccc(C(=O)N3CCN4CCC[C@H]4C3)c(F)c2)c1C#Cc1ccc(N)nc1` [Example E-142]: the IC50 stood at 107 nM. `CCc1ncnc(-c2ccc(C(=O)N3CCN(C4CCS(=O)(=O)C4)CC3)c(F)c2)c1C#Cc1ccc(N)nc1C` [Example D-17]: the 50% inhibitory concentration (IC50) worked out at 178 nM. In the case of `CCc1ncnc(-c2ccc(C(=O)N3CC[S+]([O-])CC3)c(C)c2)c1C#Cc1ccc(N)nc1` [Example E-121] it was 63.9 nM; in that of `CCc1ncnc(-c2ccc(C(=O)N3CCN(Cc4ccccc4)CC3)c(Cl)c2)c1C#Cc1ccc(N)nc1` [Example D-160], 658 nM; in that of `CCc1ncnc(-c2ccc(C(=O)N3CC(C)NC(C)C3)c(F)c2)c1C#Cc1ccc(N)nc1` [Example D-132], 184 nM.

On to `Cc1ncnc(-c2ccc(C(=O)N3CCCO3)c(F)c2)c1C#Cc1ccc(N)nc1` [Example D-226], for which the IC50 is 48 nM. Regarding `CCc1ncnc(-c2ccc(C(=O)N3CC4(CN(C)C4)C3)c(Cl)c2)c1C#Cc1ccc(N)nc1` [Example E-334], the IC50 worked out at 966 nM.

On to `CCc1ncnc(-c2ccc(C(=O)N3CCN(Cc4nc(C)c(C)o4)CC3)c(Cl)c2)c1C#Cc1ccc(N)nc1` [Example E-315], for which the IC50 stood at 127 nM.

As for `CCc1ncnc(-c2ccc(C(=O)N3CCC4(CCNCC4)C3)c(F)c2)c1C#Cc1ccc(N)nc1` [Example E-328], the half-inhibitory concentration (IC50) turned out to be 586 nM. On to `CCc1ncnc(-c2ccc(C(=O)N(C)OC)c(C)c2)c1C#Cc1ccc(N)nc1` [Example E-104], for which the IC50 amounted to 71.9 nM.

Take `CCc1ncnc(-c2ccc(C(=O)N3CCn4c(COC)nnc4C3)c(F)c2)c1C#Cc1ccc(N)nc1` [Example E-163]: the IC50 amounted to 50.8 nM. The figure for `CCc1ncnc(-c2cc(F)c(C(=O)N3CCC(C)(O)CC3)c(F)c2)c1C#Cc1ccc(NC)nc1` [Example E-218] is 362 nM; for `CCc1ncnc(-c2ccc(C(=O)NC3CCCN(C)C3)c(Cl)c2)c1C#Cc1ccc(N)nc1` [Example D-140] it is 510 nM. The figure for `CCc1ncnc(-c2cc(F)c(C(=O)N3CCCC3)c(F)c2)c1C#Cc1ccc(N)nc1` [Example E-11] is 125 nM; for `CCc1ncnc(-c2cc(Cl)c(C(=O)N3CCC4(CC3)CN(C)C4)c(Cl)c2)c1C#Cc1ccc(N)nc1` [Example E-335] it is 2210 nM.

For the compound `CCc1ncnc(-c2ccc(C(=O)N3CCN(CC(F)F)CC3)c(OC)c2)c1C#Cc1ccc(N)nc1` [Example D-47], the IC50 was 63 nM. In the case of `CCc1ncnc(-c2ccc(C(=O)N3CCN(CCOCCO)CC3)c(Cl)c2)c1C#Cc1ccc(N)nc1` [Example E-318] it was 107 nM. Consider `CCc1ncnc(-c2ccc(C(=O)N3CCN(C4CCN(C)CC4)CC3)c(F)c2)c1C#Cc1ccc(N)nc1` [Example D-64], for which the IC50 was found to be 198 nM.

On to `CCc1ncnc(-c2ccc(C(=O)N3CCn4c(C)cnc4C3)c(Cl)c2)c1C#Cc1ccc(N)nc1` [Example E-254], for which the IC50 came out at 31.6 nM. The figure for `CCc1ncnc(-c2ccc(C(=O)N3CCN(CC)CC3)c(OC(F)(F)F)c2)c1C#Cc1ccc(N)nc1` [Example E-226] is 196 nM; for `CCc1ncnc(-c2ccc(C(=O)N3CCN(Cc4ccccc4)CC3)c(F)c2)c1C#Cc1ccc(N)nc1` [Example D-97] it is 476 nM; for `CCc1ncnc(-c2cc(F)c(C(=O)N3CCC(CO)CC3)c(F)c2)c1C#Cc1ccc(NC)nc1` [Example E-220] it is 293 nM.

With `CCc1ncnc(-c2ccc(C(=O)N3C[C@@H]4CCN[C@@H]4C3)c(F)c2)c1C#Cc1ccc(N)nc1` [Example E-332], the IC50 amounted to 655 nM. On to `CCc1ncnc(-c2cc(F)c(C(=O)N3CCC(C(C)(C)O)CC3)c(Cl)c2)c1C#Cc1ccc(N)nc1` [Example E-237], for which the half-maximal inhibitory concentration (IC50) worked out at 121 nM. The figure for `CCc1ncnc(-c2ccc(C(=O)N3CCN(S(=O)(=O)CC)CC3)c(F)c2)c1C#Cc1ccc(N)nc1C` [Example D-19] is 92 nM. Regarding `Cc1ncnc(-c2ccc(C(=O)N(C)C)cc2)c1C#Cc1ccc(N)nc1` [Example C-6], the IC50 was found to be 86 nM. Take `CCc1ncnc(-c2ccc(C(=O)N3CC[C@@H](O)C3)c(Cl)c2)c1C#Cc1ccc(N)nc1` [Example D-146]: the IC50 worked out at 66 nM. With `CCc1ncnc(-c2ccc(C(=O)N3CCC4(CN(C(=O)OC(C)(C)C)C4)C3)c(F)c2)c1C#Cc1ccc(N)nc1` [Example E-323], the IC50 is 842 nM. In the case of `CCc1ncnc(-c2ccc(C(=O)N3CCC(N4CCN(C)CC4)CC3)c(Cl)c2)c1C#Cc1ccc(N)nc1` [Example E-70] it was 137 nM; in that of `CCc1ncnc(-c2ccc(C(=O)N3CCn4ccnc4C3)c(F)c2)c1C#Cc1ccc(N)nc1` [Example E-249], 60.5 nM. With `CCc1ncnc(-c2ccc(C(=O)NC3CCCN(C)C3)c(C)c2)c1C#Cc1ccc(N)nc1` (stereo not shown) [Example E-120], the IC50 was 349 nM. For the compound `CCc1ncnc(-c2ccc(C(=O)NCCN3CCOCC3)c(F)c2)c1C#Cc1ccc(N)nc1` [Example D-217], the IC50 was determined as 44 nM.

As for `CCc1ncnc(-c2cc(F)c(C(=O)NCCN3CCNCC3)c(F)c2)c1C#Cc1ccc(N)nc1` [Example E-174], the IC50 amounted to 165 nM. Consider `CCc1ncnc(-c2ccc(C(=O)N3CCN(C(C)COC)CC3)c(Cl)c2)c1C#Cc1ccc(N)nc1` (stereo not shown) [Example E-313], for which the IC50 is 122 nM. Take `CCc1ncnc(-c2ccc(C(=O)N3CCC4(CNC4)C3)c(F)c2)c1C#Cc1ccc(N)nc1` [Example E-324]: the IC50 is 935 nM.

For the compound `CCc1ncnc(-c2ccc(C(=O)N3CCN(C(C)(C)C)CC3)c(Cl)c2)c1C#Cc1ccc(N)nc1` [Example D-43], the IC50 amounted to 436 nM. `CCc1ncnc(-c2ccc(C(=O)N3CCN(/C(=N\C#N)NC)CC3)c(F)c2)c1C#Cc1ccc(N)nc1` [Example D-117]: the IC50 is 27 nM. The figure for `CCc1ncnc(-c2ccc(C(=O)N3CCN(C)CC3)c(F)c2)c1C#Cc1ccc(N)nc1` [Example D-8] is 215 nM.

Turning to `CCc1ncnc(-c2cc(Cl)c(C(=O)N3CCN(CC(F)F)CC3)c(Cl)c2)c1C#Cc1ccc(N)nc1` [Example E-202], the IC50 was found to be 85.8 nM. In the case of `CCc1ncnc(-c2cc(F)c(C(=O)N3CCN(C4CCC4)CC3)c(Cl)c2)c1C#Cc1ccc(N)nc1` [Example E-160] it was 115 nM.

`CCc1ncnc(-c2ccc(C(=O)NCC(O)CN(C)C)c(F)c2)c1C#Cc1ccc(N)nc1` [Example D-196]: the IC50 turned out to be 292 nM. The figure for `CCc1ncnc(-c2ccc(C(=O)N3CCN(C)CC3)nc2)c1C#Cc1ccc(N)nc1` [Example D-240] is 214 nM; for `CCc1ncnc(-c2ccc(C(=O)N3CCCC(O)C3)c(OC)c2)c1C#Cc1ccc(N)nc1` (stereo not shown) [Example E-46] it is 104 nM. The figure for `CCc1ncnc(-c2ccc(C(=O)N3CC[C@@H](N(C)C)C3)c(F)c2)c1C#Cc1ccc(NC)nc1` [Example E-180] is 357 nM; for `CCc1ncnc(-c2ccc(C(=O)N3CCN(CCN(C)C)CC3)c(F)c2)c1C#Cc1ccc(N)nc1C` [Example D-26] it is 552 nM; for `CCc1ncnc(-c2cc(F)c(C(=O)N3CCN(C(C)CO)CC3)c(Cl)c2)c1C#Cc1ccc(N)nc1` (stereo not shown) [Example E-306] it is 108 nM. For `CCc1ncnc(-c2ccc(C(=O)N(C)CC(C)(C)O)c(F)c2)c1C#Cc1ccc(N)nc1` [Example D-81], the IC50 was determined as 84 nM. In the case of `CCCCN1CCN(C(=O)c2ccc(-c3ncnc(CC)c3C#Cc3ccc(N)nc3)cc2F)CC1` [Example D-83] it was 219 nM; in that of `CCc1ncnc(-c2ccc(C(=O)N3CCN(c4ccccc4)CC3)c(C)c2)c1C#Cc1ccc(N)nc1` [Example E-135], 149 nM; in that of `CCc1ncnc(-c2ccc(C(=O)N3CCN(C)CC3)c(Cl)c2)c1C#Cc1ccc(NC)nc1` [Example E-191], 142 nM. The figure for `Cc1ncnc(-c2ccc(C(=O)N(C)C)c(F)c2)c1C#Cc1ccc(N)nc1` [Example C-11] is 47 nM; for `CCc1ncnc(-c2ccc(C(=O)N3CCC(N4CCOCC4)CC3)c(C)c2)c1C#Cc1ccc(N)nc1` [Example E-91] it is 179 nM. For `CCc1ncnc(-c2ccc(C(=O)N3CCC(C(C)(C)O)CC3)c(Cl)c2)c1C#Cc1ccc(N)nc1` [Example E-20], the IC50 was 101 nM. As to `CCc1ncnc(-c2cc(F)c(C(=O)N3CCN(C(C)COC)CC3)c(Cl)c2)c1C#Cc1ccc(N)nc1` (stereo not shown) [Example E-305], the concentration for half-maximal inhibition (IC50) came to 110 nM. For the compound `CCc1ncnc(-c2ccc(C(=O)N3CC[C@H](N(C)C)C3)c(Cl)c2)c1C#Cc1ccc(NC)nc1` [Example E-190], the IC50 turned out to be 175 nM.

As usually defined, the IC50 is the concentration needed to halve the response being measured.
